Type in all cases: in vivo
In assay [1] the test system is Zea mays. In words: Cultivation of Zea mays from coated seeds under non-stress conditions (Example 1). The following applies: 3 weeks after seeding. How it is done: Dent corn seeds (100 g; the variety: Snow-dent “Otoha”) were coated with 800 μl of a coating solution containing tryptophan, oxidized glutathione, polyvinyl alcohol, and a coloring dye in water using a coater (SATEC). Coating was performed using either or both of tryptophan in an amount of 0 g, 0.045 g, 0.1225 g, 0.45 g, 5 g, or 50 g and oxidized glutathione in an amount of 0 g, 3 g, 15 g, 150 g, or 300 g per ton of seeds.
Culture soil was filled into 12-cm vinyl pots, and the coated dent corn seeds were seeded at 4 grains/pot. After germination, a differently grown strain was thinned to retain 3 strains in a pot. Cultivation was performed in a glass greenhouse, and inspection was performed 21 days after seeding. The height and the fresh weight of the aboveground part were measured, and the density (the fresh weight of the aboveground part/the height) was determined. The test was repeated 6 times, and the average was determined.
(§1) The measured fresh weight of the aboveground part of plants in groups each treated with different amounts of tryptophan and oxidized glutathione was indicated as the rate of change (%), relative to the fresh weight of the aboveground part of plants in the test group (control group) treated with a coating solution not containing tryptophan or oxidized glutathione. […]

The subject of assay [2] is wheat. As to the kind of experiment: Cultivation of wheat from coated seeds under low-temperature stress conditions (Example 9). As to conditions: 6 weeks after seeding. Here is the method:
Wheat seeds (100 g; the variety: Yumechikara) were coated with 800 μl of a coating solution containing tryptophan, oxidized glutathione, polyvinyl alcohol, and a coloring dye in water using a coater (SATEC). Coating was performed using either or both of 5 g of tryptophan per MT-seeds and 75 g of oxidized glutathione per MT-seeds. Culture soil was filled into 7.5-cm pots, and the coated wheat seeds were seeded at 1 grain/pot. Cultivation was performed in a glass greenhouse before germination, the germinated plants were transferred to and cultivated in an artificial climate chamber with a diurnal period of 12 hours set at 10° C. and a nocturnal period of 12 hours set at 5° C., and inspection was performed 6 weeks after seeding. The dry weight of the aboveground part and the dry weight of the underground part were measured. The test was repeated 8 times, and the average was determined.
In the table, “%” indicates a value calculated relative to the weight without treatment, which is designated as 100%. […] With the use of glutathione in combination with tryptophan, in addition, the dry weight of the aboveground part was increased by 17% and the dry weight of the underground part was increased by 24%, relative to the control group. Such increase was significant. […] As described above, use of glutathione in combination with tryptophan would exert effects of promoting the healthy growth under low-temperature stress conditions.

Assay [3] relates to Zea mays. In words: Cultivation of Zea mays from coated seeds under salt stress conditions (Example 2). The following applies: 3 weeks after seeding, fresh weight of aboveground part. Here is the method:
Dent corn seeds (100 g; the variety: Snow-dent “Otoha”) were coated with 800 μl of a coating solution containing tryptophan, oxidized glutathione, polyvinyl alcohol, and a coloring dye in water using a coater (SATEC). Coating was performed using either or both of tryptophan in an amount of 0 g, 0.009 g, 0.045 g, 0.1225 g, 0.225 g, 0.45 g, or 5 g and oxidized glutathione in an amount of 0 g, 15 g, or 75 g per ton of seeds.
Culture soil containing sodium chloride at 6.0 g/l of the soil was filled into 7.5-cm pots, and the coated dent corn seeds were seeded at 1 grain/pot. Cultivation was performed in a glass greenhouse, and inspection was performed 21 days after seeding. The height, the fresh weight of the aboveground part, and the number of leaves were measured, and the density (the fresh weight of the aboveground part/the height) was determined. The test was repeated 9 times, and the average was determined.
The rates of changes (%) in the height, the number of leaves, the fresh weight of the aboveground part, and the density (the fresh weight of the aboveground part/the height) measured or determined for the test groups, relative to those of the control group were determined.

The test system of assay [4] is Zea mays. As to the kind of experiment: Cultivation of Zea mays from seeds coated with tryptophan and reduced glutathione under non-stress conditions (Comparative Example 1). As to conditions: 3 weeks after seeding, Trp 0.225 g and/or GSH 1-75 g per MT-seeds, FIG. 14.
Description: Dent corn seeds (100 g; the variety: Snow-dent “Otoha”) were coated with 800 μl of a coating solution containing 0.225 g of tryptophan per ton of seeds (i.e., MT-seeds), 0, 1, 5, 15, or 75 g of reduced glutathione per MT-seeds, polyvinyl alcohol, and a coloring dye in water using a coater (SATEC).
Culture soil was filled into 12-cm vinyl pots, and the coated dent corn seeds were seeded at 4 grains/pot. After germination, a differently grown strain was thinned to retain 3 strains in a pot. Cultivation was performed in a glass greenhouse, and inspection was performed 21 days after seeding. The fresh weight of the aboveground part was measured. The test was repeated 6 times, and the average was determined.
The test system of assay [5] is wheat. As to the kind of experiment: Cultivation of wheat from coated seeds under salt stress conditions (Example 4). As to conditions: fresh weight of aboveground part. How it is done: Wheat seeds (100 g; the variety: Yumechikara) were coated with 800 μl of a coating solution containing tryptophan, oxidized glutathione, polyvinyl alcohol, and a coloring dye in water using a coater (SATEC). Coating was performed using either or both of tryptophan in an amount of 0 g, 0.225 g, 2.25 g, 5 g, 10 g, or 50 g and oxidized glutathione in an amount of 0 g, 15 g, or 300 g per ton of seeds.
Culture soil containing sodium chloride at 4.0 g/l of the soil was filled into 7.5-cm pots, and the coated wheat seeds were seeded at 1 grain/pot. Cultivation was performed in a glass greenhouse, and inspection was performed 16 days after seeding. The height and the fresh weight of the aboveground part were measured, and the density (the fresh weight of the aboveground part/the height) was determined. The test was repeated 9 times, and the average was determined.
as §1

Assay [6] has as its system Zea mays. In words: Cultivation of Zea mays from seeds coated with tryptophan and reduced glutathione under salt stress conditions (Comparative Example 2). As to conditions: salt stress (NaCl 6.0 g/l soil); 3 weeks after seeding; Trp 0.225 g and/or GSH 1-75 g per MT-seeds; FIG. 15.
Description: Dent corn seeds (100 g; the variety: Snow-dent “Otoha”) were coated with 800 μl of a coating solution containing 0.225 g of tryptophan per MT-seeds, 0, 1, 5, 15, or 75 g of reduced glutathione per MT-seeds, polyvinyl alcohol, and a coloring dye in water using a coater (SATEC).
Culture soil containing sodium chloride at 6.0 g/l of the soil was filled into 7.5-cm pots, and the coated dent corn seeds were seeded at 1 grain/pot. Cultivation was performed in a glass greenhouse, and inspection was performed 21 days after seeding. The fresh weight of the aboveground part was measured. The test was repeated 9 times, and the average was determined.
The fresh weight of the aboveground part measured for the test groups treated with different amounts of tryptophan and reduced glutathione was indicated as the rate of change (%), relative to that of the test group (the control group) treated with a coating solution not containing tryptophan or reduced glutathione.
A further assay concerns soybean. In words: Cultivation of soybean from coated seeds under salt stress conditions (Example 6). As to conditions: 3 weeks after seeding, fresh weight of aboveground part. How it is done:
Soybean seeds (100 g; the variety: Fukuyutaka) were coated with 800 μl of a coating solution containing tryptophan, oxidized glutathione, polyvinyl alcohol, and a coloring dye in water using a coater (SATEC). Coating was performed using either or both of tryptophan in an amount of 0 g, 0.045 g, 0.225 g, 0.45 g, or 5 g and oxidized glutathione in an amount of 0 g, 15 g, or 75 g per ton of seeds.
Culture soil containing sodium chloride at 1.0 g/l of the soil was filled into 7.5-cm pots, and the coated soybean seeds were seeded at 1 grain/pot. Cultivation was performed in a glass greenhouse, and inspection was performed 21 days after seeding. The fresh weight of the aboveground part, the density (the fresh weight of the aboveground part/the height), and the dry weight of the underground part were measured. The test was repeated 9 times, and the average was determined.
as §1

The test system of the next assay is rice. As to the kind of experiment: Cultivation of rice from coated seeds under non-stress conditions (Example 7). As to conditions: 3 weeks after seeding. How it is done: Rice seeds (100 g; the variety: Emimaru) were coated with 800 μl of a coating solution containing tryptophan, oxidized glutathione, polyvinyl alcohol, and a coloring dye in water using a coater (SATEC). Coating was performed using either or both of tryptophan in an amount of 0 g, 2.25 g, or 5 g and oxidized glutathione in an amount of 0 g or 75 g per ton of seeds.
Culture soil was filled into 12-cm vinyl pots, and the coated rice seeds were seeded at 5 grains/pot. Cultivation was performed in a glass greenhouse, and the fresh weight of the aboveground part was inspected 21 days after seeding. The test was repeated 6 times, and the average was determined.
(§2) The measured fresh weight of the aboveground part of plants in groups each treated with different amounts of tryptophan and oxidized glutathione was indicated as the rate of change (%), relative to the fresh weight of the aboveground part of plants in the test group (control group) treated with a coating solution not containing tryptophan or oxidized glutathione.

Assay [7] relates to wheat. In words: Cultivation of wheat from coated seeds under non-stress conditions (Example 3). The following applies: 2 weeks after seeding, fresh weight of aboveground part. How it is done: Wheat seeds (100 g, Quintus) were coated with 800 μl of a coating solution containing tryptophan, oxidized glutathione, polyvinyl alcohol, and a coloring dye in water using a coater (SATEC). Coating was performed using either or both of tryptophan in an amount of 0 g, 0.01 g, 0.25 g, 5 g, or 10 g and oxidized glutathione in an amount of 0 g, 6 g, or 300 g per ton of seeds.
Culture soil was filled into a 96-well cell tray, the coated wheat seeds were seeded at 1 grain/cell, and inspection was performed 2 weeks after seeding. The height and the fresh weight of the aboveground part were measured, and the density (the fresh weight of the aboveground part/the height) was determined. Groups each consisting of 6 plants were subjected to the test, and the test was repeated 4 times.
as §2
The density (the fresh weight of the aboveground part/the height) of the test groups was indicated as the rate of change (%), relative to the density of the control group.

Assay [8] concerns Zea mays. As to the kind of experiment: Field test of Zea mays, ear yield (Example 8). The following applies: 0.25 g tryptophan and/or 75 g GSSG per ton of seeds. Here is the method: As a control group, seeds without coating were prepared.
• Location: the Wilderen MAR field, the Kingdom of Belgium • Variety: Like IT • Date of seeding: Apr.
Cultivation was performed in accordance with the conventional fertilization management technique and pest management technique, and the yield was inspected. • Inspection of yield: 120 strains/group; the number of repetition: 4

Where [9] appears, read: low-temperature stress (10° C./5° C.), Trp 5 g and/or GSSG 75 g per MT-seeds.
[10] abbreviates: low-temperature stress, Trp 5 g and/or GSSG 75 g per MT-seeds.

Take `N[C@@H](Cc1c[nH]c2ccccc12)C(=O)O` [tryptophan, L-tryptophan]: the “increase in the fresh weight of the aboveground part compared with no treatment” value in the assay with Zea mays [1] (either or both of 0.1225 g tryptophan and 150 g GSSG per ton of seeds) was found to be 3%. In addition, the “effects of promoting the initial growth” value with Zea mays [1] (fresh weight of aboveground part) is recorded as “No effects of promoting the initial growth were attained”; with wheat [2] (low-temperature stress), “not observed”; with Zea mays [3], “No effects of promoting the initial growth were attained”; in the assay with wheat [5], “No effects of promoting the initial growth were attained”; with soybean, “No effects of promoting the initial growth were attained”; in the assay on rice, “Effects of promoting the initial growth were attained to some extent”. The “effects of promoting the initial growth” value in the assay on wheat [7] is on record as “No effects of promoting the initial growth were attained”. Further, in the assay on wheat [2] (setting [9]), the “Dry weight of aboveground part” value was found to be 0.24 g. For the same compound, the “Dry weight of underground part” value in the assay on wheat [2] (setting [9]) was 0.08 g. For the same compound, the “Dry weight of aboveground part, relative to without treatment (100%)” value in the assay with wheat [2] (setting [10]) came out at 97%. Further, the “Dry weight of underground part, relative to without treatment (100%)” value in the assay with wheat [2] (setting [10]) is 101%. Besides, the “rate of change in the fresh weight of the aboveground part relative to control group” value in the assay with Zea mays [4] is 4%; in the assay on Zea mays [6] it was 1%. Moreover, the “ear yield relative to the control group without coating (100%)” value with Zea mays [8] (FIG. 16) is on record as 100.4%. In addition, the “increase in the ear yield” value in the assay on Zea mays [8] (relative to control group) was “An increase was not observed in the yield”.

These data come from patent US20240423215A1, “COMPOSITION FOR COATING PLANT SEED” (priority 2022, published 2024).
